Data from patent publication US8173840B2, “Compounds with high therapeutic index” (Signature R&D Holdings, LLC, priority 2003, dated 2012).
Where two headings read alike, the source gives them in different places.

Columns and labels:
[1] = tested on: Spontaneously Hypertensive Rats (SHRs); assay: Hemodynamics in Spontaneously Hypertensive Rats; type: in vivo, rat
Description: ACE inhibitors have been known to be useful in antihypertensive therapy for many years. Some ACE inhibitors are delivered orally as the parent drug (captopril) while others are delivered as pro-drugs in order to obtain clinically useful plasma concentrations. This study provides data on the effect of these various enalapril derivatives on hemodynamics in SHRs when given orally and compared to enalapril.
Briefly, SHRs fitted with right carotid catheters were orally gavaged with 100 mg/kg enalapril or equivalent does of the enalapril derivatives, and the blood pressures were followed continuously up to 3 hours and then a measurement at 24 hours. The animals were conscious throughout the procedure and were placed in a restrainer and hooked up to a pressure transducer and a signal processor. After 3 hours, the animals were placed back into their cage, and blood pressure was finally measured again at 24 hours.

[2] = Solubility of propofol and its amino acid esters in water; conditions: water, solubility in water
[3] = tested on: albino mouse; assay: Anesthetic effect in male albino mice, righting reflex as index
[4] = tested on: albino mice (Swiss strain); assay: 14 day repeated dose toxicity study, intravenous route, propofol esters
[5] = tested on: male albino mice (Swiss strain); assay: Acetylcholine induced abdominal constriction (writhe) method; type: in vivo, mouse; conditions: gavage
Description: Ibuprofen (racemic mixture) and ibuprofen (S)-(+) served as reference controls.
The study was conducted at two dose levels viz. 50 mg and 100 mg/kg body weight along with a vehicle control group. At each dose level 10 animals were used. All the doses were expressed as ibuprofen molar equivalents. The doses used as well as the molar equivalents are presented below.
The efficacy in terms of antagonizing effect on acetylcholine induced single writhe at two dose levels—50.0 and 100.0 mg/kg for the three formulations and reference controls are presented below.

[6] = tested on: Swiss Albino Mice; conditions: mouse, in vivo
[7] = tested on: Swiss Albino Mice; assay: 28-day chronic toxicity study of ibuprofen esters; conditions: 28 days; for No of animals survived: 10 animals per group; for Average Change In body Weight / Percentage Change of body weight: surviving animals
[8] = tested on: Patient; assay: Human clinical trial of S(−)Ketorolac-L-Threonine ester (analgesic activity); type: in vivo; conditions: for analgesic activity and side effects (words): 13 mg twice daily, oral capsules, Hydrochloride
Description: S(−)Ketorolac-L-Threonine ester capsules were filled using dextrose as the filler. […] For example, 13 mg of S(−)Ketorolac-L-Threonine ester was roughly equivalent to 13 mg of racemic Ketorolac tromethamine in tablet and/or capsule form.
A patient suffering from severe ankolysing spodolytis, arthritis and other inflammatory joint problems was under treatment with Indomethacin, 25 mg twice daily dose. In order the evaluate the analgesic activity of S(−) Ketorolac-L-Threonine ester, the patient was withdrawn from Indomethacin. After 24 hours, the pain returned and they were administered with 13 mg of S(−) Ketorolac L-Threonine ester, once in the morning and once in the evening. This was repeated for 5 days.
About 3 months later, the same above volunteer repeated the experiment. This time, after they went off the indomethacin, only one dose of 13 mg of S(−) Ketorolac-L-Threonine ester was administered. […] This treatment was continued for another 3 days of two capsules of 13 mg each. On the morning of the 6th day, they were switched back to Indomethacin.

[9] = tested on: fasted male albino rats (Wistar strain); assay: Gastric mucosal irritation potential of ibuprofen esters; type: in vivo, rat; conditions: two dose levels, 200 mg and 300 mg/kg
[10] = tested on: human volunteers; assay: Analgesic and anti-inflammatory effects of S(+)Ibuprofen-L-Threonine Ester in human volunteers; type: in vivo
Description: Determination of the analgesic and anti-inflammatory effects of S(+)Ibuprofen-L-Threonine Ester in three human volunteers was conducted as follows:
Two male, age 49 and 50 having severe headache took 1 capsule containing S(+)Ibuprofen-L-Threonine Ester manufacturing and formulation under GMP conditions. The capsule contents were equivalent to 200 mg of racemic Ibuprofen. Relief from headache was reported after 15 min, and complete absence of any pain from headache was reported at the end of 1 hour, which lasted for another 12 hours.
Two males age 49 and 51 took 1 capsule each containing S(+)IbuprofenL-Threonine ester for arthritic knee pain, which was perceptible. […] Such amolearation of pain was further sustained for another 24 hours.

[11] = 50.0 mg/kg in terms of Ibuprofen
[12] = 100.0 mg/kg in terms of Ibuprofen
[13] = 1 capsule equivalent to 200 mg racemic Ibuprofen

Molecule: CCOC(=O)[C@H](CCc1ccccc1)N[C@@H](C)C(=O)N1CCC[C@H]1C(=O)O [Enalapril]
- reduction of blood pressure ([1]; 100 mg/kg oral gavage, at 3 hours and 24 hours): approximately 20%
- arterial blood pressure ([1]; oral, 100 mg/kg enalapril or equivalent doses): reduced arterial blood pressure

Molecule: CC(C)c1cccc(C(C)C)c1OC(=O)C1CCCN1.Cl (stereo in doubt) [Propofol Proline Ester, Pyrrolidine-2(S)-carboxylic acid 2,6-diisopropyl-phenyl ester, hydrochloride]
- solubility [2]: > 100 mg/mL
- anesthetic effect, relative efficacy ([3]; Intermediate Dose): more effective
- dose response relation (statistical analysis) ([3]; low, intermediate, high dose): No significant dose—response effects were evident
- feed intake ([4]; 14 days): normal and comparable to that of vehicle control group
- behavior, feed consumption, organ weights, histopathology of different organs ([4]; 14 days, vs reference group): normal and comparable to that of the animals of the reference group
- animals exhibiting clinical symptoms of toxicity ([4]; IV daily 14 days): None of the animals
- body weight gain ([4]; IV daily 14 days, compared to vehicle control): normal and comparable to that of vehicle control group of animals
- MCV vs Propofol injection (RC) [p<0.05] ([4]; female animals): significantly decreased
- level of urea vs Propofol injection (RC) [p<0.05] ([4]; female animals): significantly decreased
- granulocytes vs Propofol injection (RC) [p<0.05] ([4]; male animals): significantly decreased
- level of sodium vs Propofol injection (RC) [p<0.05] ([4]; male animals): significantly increased
- lymphocytes counts vs Propofol injection (RC) [p<0.05] ([4]; male animals): significantly increased

Molecule: CC(C)Cc1ccc(C(C)C(=O)O)cc1 (racemic) [Ibuprofen (racemic mixture), reference compound]
- Number of animals showing absence of single writhe (number of animals per dose = 10), One hour after dosing [5, 11]: 4
- Number of animals showing absence of single writhe (number of animals per dose = 10), Three hours after dosing [5, 11]: 2
- Number of animals showing absence of single writhe (number of animals per dose = 10), One hour after dosing [5, 12]: 6
- Number of animals showing absence of single writhe (number of animals per dose = 10), Three hours after dosing [5, 12]: 6
- animals that died ([6]; both): 40%
- Mortality ([6]; female): 3/5
- Mortality ([6]; male): 1/5
- No of animals survived [7]: 6
- Average Change In body Weight [7]: 2.97 gms
- Percentage Change of body weight [7]: 12.54%

Molecule: S(−)-Ketorolac L-Threonine Ester, Hydrochloride [S(−) Ketorolac L-Threonine ester]
- analgesic activity and side effects (words) [8]: lack of pain, no gastric irritation symptoms, or other side effects
- analgesic activity and side effects (words) ([8]; listed as S(−) Ketorolac-L-Threonine ester): lack of any pain
- analgesic activity ([8]; only one dose of 13 mg daily, after the 2nd day): complained of the pain resurfacing

Molecule: CC(C)Cc1ccc([C@H](C)C(=O)O[C@H](C)[C@H](N)C(=O)O)cc1.Cl [S-(+)-Ibuprofen-L-threonine ester, 2(S)-Amino-3(R)-[2(S)-(4-isobutyl-phenyl)-propionyloxy]-butyric acid]
- Number of animals showing absence of single writhe (number of animals per dose = 10), One hour after dosing [5, 11]: 1
- Number of animals showing absence of single writhe (number of animals per dose = 10), Three hours after dosing [5, 11]: 0
- Number of animals showing absence of single writhe (number of animals per dose = 10), One hour after dosing [5, 12]: 3
- Number of animals showing absence of single writhe (number of animals per dose = 10), Three hours after dosing [5, 12]: 0
- irritation of gastric mucosa [9]: significantly and completely non-toxic to GI mucosa in the rats tested
- amelioration of knee pain sustained for another ([10]; 1 capsule): 24 h
- absence of headache pain lasted for another [10, 13]: 12 h
- complete absence of any pain from headache reported at the end of [10, 13]: 1 h
- relief from headache reported after ([10]; 1 capsule equivalent to 200 mg racemic Ibuprofen, two males with severe headache): 15 min
- arthritic knee pain ([10]; 1 capsule, two males, after 12 hours): significant reduction is the pain associated with their right knee
- No of animals survived [7]: 10
- animals that died ([7]; both sexes): none of the animals
- Mortality ([7]; Female): Nil
- Mortality ([7]; Male): Nil
- Average Change In body Weight [7]: −0.68 gms
- Percentage Change of body weight [7]: −3.61%
